PMC11129182, “Development of Inhibitors, Probes, and PROTAC Provides a Complete Toolbox to Study PARK7 in the Living Cell” (Journal of Medicinal Chemistry, 2024)
Read-outs that look alike come from different tables or passages of the source.

Columns and labels:
PARK7 [1] = target: T1, PARK7 (Homo sapiens, UniProt Q99497); assay: High-throughput screen of the crude compound library, PARK7 fluorescence polarization (FP) assay with FP reagent JYQ-107; type: biochemical; conditions: for inhibition at 1.25 µM: read-out: HTS FP assay %Inhibition (1.25 µM)
T1 sequence (Q99497 1-189): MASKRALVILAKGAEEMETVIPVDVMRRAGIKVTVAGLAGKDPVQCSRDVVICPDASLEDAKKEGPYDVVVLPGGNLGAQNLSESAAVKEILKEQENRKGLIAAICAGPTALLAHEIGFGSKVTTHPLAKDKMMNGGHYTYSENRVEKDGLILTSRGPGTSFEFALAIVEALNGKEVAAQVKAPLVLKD

PARK7 [2] = target: T1, PARK7; assay: Hit validation and pure-compound testing in the PARK7 FP assay with JYQ-107; type: biochemical; conditions: for inhibition at 0.25 µM: read-out: % Inhibition 0.25 µM; for inhibition at 0.5 µM: read-out: % Inhibition 0.5 µM
[3] = 1.25 µM, crude compound library
[4] = 1.25 µM, crude compound library, FP reagent JYQ-107

Compound | inhibition at 1.25 µM (PARK7 [1]; [3]) [%] | inhibition at 0.25 µM (PARK7 [2]; crude compounds, 0.25 µM) [%] | inhibition at 0.5 µM (PARK7 [2]; crude compounds) [%] | inhibition at 1 µM (PARK7 [2]; crude compounds, 1 µM) [%] | inhibition at 1.25 µM (PARK7 [1]; [4]) [%] | other results
N#CN1CC[C@@H](C(=O)Nc2nc3c(s2)CN(C(=O)c2cccc(S(=O)(=O)NCc4cccs4)c2)CC3)C1 [Compound 11] | 90 | 49.3 | 77.9 | 93.6 |  | 
N#CN1CC[C@@H](C(=O)Nc2nc3c(s2)CN(C(=O)c2cc(-n4ccnc4)ccn2)CC3)C1 [Compound 22] | 90.7 | 52.2 | 81 | 96 |  | 
N#CN1CC[C@@H](C(=O)Nc2nc3c(s2)CN(C(=O)c2cn(C4CCC4)nn2)CC3)C1 [Compound 30] | 89.2 | 52.3 | 75.7 | 93.6 |  | 
N#CN1CC[C@@H](C(=O)Nc2nc3c(s2)CN(C(=O)c2cccc(S(=O)(=O)NC4CC4)c2)CC3)C1 [Compound 59, (R)-1-Cyano-N-(5-(3-(N-cyclopropylsulfamoyl)benzoyl)-4,5,6,7-tetrahydrothiazolo[5,4-c]pyridin-2-yl)pyrrolidine-3-carboxamide] | 89.7 | 63.1 | 84.4 | 97.5 |  | inhibition at 0.25 µM (PARK7 [2]; pure compounds, 0.25 µM): 74.8%; inhibition at 1 µM (PARK7 [2]; pure compounds, 1 µM): 93.6%
N#CN1CC[C@@H](C(=O)Nc2nc3c(s2)CN(C(=O)c2cn(CCc4ccccc4)nn2)CC3)C1 [Compound 76] | 91.3 | 54.4 | 78 | 92.1 |  | 
CCC1(Cn2cc(C(=O)N3CCc4nc(NC(=O)[C@@H]5CCN(C#N)C5)sc4C3)nn2)COC1 [Compound 83] | 92.3 | 47.6 | 73.1 | 92.7 |  | 
N#CN1CC[C@@H](C(=O)Nc2nc3c(s2)CN(C(=O)c2cccc(COc4cccc(F)c4)c2)CC3)C1 [Compound 110] | 94 | 56.4 | 78.2 | 93.5 |  | 
COc1ccc(C(=O)N2CCc3nc(NC(=O)[C@@H]4CCN(C#N)C4)sc3C2)cc1S(=O)(=O)N1CCCCCC1 [Compound 133, (R)-N-(5-(3-(Azepan-1-ylsulfonyl)-4-methoxybenzoyl)-4,5,6,7-tetrahydrothiazolo[5,4-c]pyridin-2-yl)-1-cyanopyrrolidine-3-carboxamid] | 90.8 | 76.3 | 89.1 | 98.8 |  | inhibition at 0.25 µM (PARK7 [2]; pure compounds, 0.25 µM): 77.9%; inhibition at 1 µM (PARK7 [2]; pure compounds, 1 µM): 95.4%
N#CN1CC[C@@H](C(=O)Nc2nc3c(s2)CN(C(=O)c2cc(S(=O)(=O)NCCCN4CCCC4=O)ccc2Cl)CC3)C1 [Compound 146] | 89.7 | 45 | 70.4 | 90.7 |  | 
N#CN1CC[C@@H](C(=O)Nc2nc3c(s2)CN(C(=O)C2CC(=O)N(C4CCCCCC4)C2)CC3)C1 (stereo partly shown) [Compound 163] | 89.6 | 43.1 | 70.9 | 90.3 |  | 
N#CN1CC[C@@H](C(=O)Nc2nc3c(s2)CN(C(=O)c2cc(C4CCCCC4)[nH]n2)CC3)C1 [Compound 164] | 95.1 | 48.2 | 75.6 | 94.4 |  | 
CC(C)(C)OC(=O)N1CC[C@H](C(=O)N2CCc3nc(NC(=O)[C@@H]4CCN(C#N)C4)sc3C2)C1 [compound 454] |  |  |  |  | 73.8 | 
N#CN1CC[C@@H](C(=O)Nc2nc3c(s2)CN(C(=O)c2ccc4cc5ccccc5cc4c2)CC3)C1 [compound 455] |  |  |  |  | 79.5 | 
N#CN1CC[C@@H](C(=O)Nc2nc3c(s2)CN(C(=O)c2cccc4cc5ccccc5cc24)CC3)C1 [compound 456] |  |  |  |  | 80.6 | 
N#CCC(=O)N1CCc2nc(NC(=O)[C@@H]3CCN(C#N)C3)sc2C1 [compound 457] |  |  |  |  | 49.3 | 
N#CN1CC[C@@H](C(=O)Nc2nc3c(s2)CN(C(=O)CCc2ccccc2)CC3)C1 [compound 459] |  |  |  |  | 72.7 | 

Compound | inhibition at 1.25 µM (PARK7 [1]; [3]) [%] | inhibition at 0.25 µM (PARK7 [2]; crude compounds, 0.25 µM) [%] | inhibition at 0.5 µM (PARK7 [2]; crude compounds) [%] | inhibition at 1 µM (PARK7 [2]; crude compounds, 1 µM) [%] | inhibition at 1.25 µM (PARK7 [1]; [4]) [%] | other results
N#CN1CC[C@@H](C(=O)Nc2nc3c(s2)CN(C(=O)C(Cl)(Cl)Cl)CC3)C1 [compound 460] |  |  |  |  | 6.9 | 
N#CN1CC[C@@H](C(=O)Nc2nc3c(s2)CN(C(=O)CN2CCOCC2)CC3)C1 [compound 461] |  |  |  |  | 72.7 | 
N#CN1CC[C@@H](C(=O)Nc2nc3c(s2)CN(C(=O)C2CC(=O)NC(=O)N2)CC3)C1 (stereo partly shown) [compound 462] |  |  |  |  | 60.1 | 
CN1CCN(CC(=O)N2CCc3nc(NC(=O)[C@@H]4CCN(C#N)C4)sc3C2)CC1 [compound 463] |  |  |  |  | 67.3 | 
N#CN1CC[C@@H](C(=O)Nc2nc3c(s2)CN(C(=O)C2CC2)CC3)C1 [compound 464] |  |  |  |  | 78.9 | 
N#CN1CC[C@@H](C(=O)Nc2nc3c(s2)CN(C(=O)CC2C(=O)Nc4ccccc42)CC3)C1 (stereo partly shown) [compound 465] |  |  |  |  | 81.8 | 
CC(=O)C(=O)N1CCc2nc(NC(=O)[C@@H]3CCN(C#N)C3)sc2C1 [compound 466] |  |  |  |  | 58.5 | 
COCC(=O)N1CCc2nc(NC(=O)[C@@H]3CCN(C#N)C3)sc2C1 [compound 467] |  |  |  |  | 67.9 | 
N#CN1CC[C@@H](C(=O)Nc2nc3c(s2)CN(C(=O)c2cnccn2)CC3)C1 [compound 468] |  |  |  |  |  | HTS FP assay %Inhibition (1.25 µM) (PARK7 [1]; [4]): 76.5%; % Inhibition (PARK7 [1]; HTS of crude compound library, sheet "SMILES+%Inh HTS"): 76.5%
N#CN1CC[C@@H](C(=O)Nc2nc3c(s2)CN(C(=O)c2ccc4c(c2)ncn4C2CCCCO2)CC3)C1 (stereo partly shown) [compound 471] |  |  |  |  | 80 | 
N#CN1CC[C@@H](C(=O)Nc2nc3c(s2)CN(C(=O)c2ccc(N4CCOCC4)cc2)CC3)C1 [compound 473] |  |  |  |  | 72.4 | 
CN1CCC(C(=O)N2CCc3nc(NC(=O)[C@@H]4CCN(C#N)C4)sc3C2)CC1 [compound 474] |  |  |  |  | 72.5 | 
CC(=O)N1CCC(C(=O)N2CCc3nc(NC(=O)[C@@H]4CCN(C#N)C4)sc3C2)CC1 [compound 475] |  |  |  |  | 68.5 | 
N#CN1CC[C@@H](C(=O)Nc2nc3c(s2)CN(C(=O)C2CCN(c4ncccn4)CC2)CC3)C1 [compound 476] |  |  |  |  | 70.3 | 
(R)-1-Cyano-N-(5-(4-hydroxybenzoyl)-4,5,6,7-tetrahydrothiazolo[5,4-c]pyridin-2-yl)pyrrolidine-3-carboxamide [Compound 3] |  |  |  |  |  | % Inhibition 0.25 µM (PARK7 [2]; pure compounds, 0.25 µM): 58.4%; % Inhibition 1 µM (PARK7 [2]; pure compounds, 1 µM): 90.1%; potency in FP assay compared to JYQ-88 (PARK7 [2]; pure compounds, 0.25 and 1 μM): slight improvement in potency compared to JYQ-88

Further lines, with some results ahead:

inhibition at 1.25 µM (PARK7 [1]; [3]) [%] | inhibition at 0.25 µM (PARK7 [2]; crude compounds, 0.25 µM) [%] | inhibition at 0.5 µM (PARK7 [2]; crude compounds) [%] | inhibition at 1 µM (PARK7 [2]; crude compounds, 1 µM) [%] | inhibition at 1.25 µM (PARK7 [1]; [4]) [%] | Compound | other results
90 | 33.1 | 63.2 | 89.5 |  | N#CN1CC[C@@H](C(=O)Nc2nc3c(s2)CN(C(=O)c2cc(-c4ccc(Cl)s4)[nH]n2)CC3)C1 [Compound 64] | 
91.1 | 54.6 | 78 | 93.1 |  | Cc1nc(-c2cnn(C)c2)sc1C(=O)N1CCc2nc(NC(=O)[C@@H]3CCN(C#N)C3)sc2C1 [Compound 112] | 
90.5 | 52 | 77.6 | 93.8 |  | Cc1ccc(-c2cc(C(=O)N3CCc4nc(NC(=O)[C@@H]5CCN(C#N)C5)sc4C3)[nH]n2)o1 [Compound 121] | 
91 | 66.1 | 84.3 | 96.9 |  | N#CN1CC[C@@H](C(=O)Nc2nc3c(s2)CN(C(=O)c2cccc(-c4ncn[nH]4)c2)CC3)C1 [Compound 131] | 
91.5 | 58.2 | 80.9 | 94.3 |  | N#CN1CC[C@@H](C(=O)Nc2nc3c(s2)CN(C(=O)c2cc(-c4ccco4)on2)CC3)C1 [Compound 139] | 
90.7 | 36.9 | 62.1 | 85.7 |  | N#CN1CC[C@@H](C(=O)Nc2nc3c(s2)CN(C(=O)c2ccc(Cn4cc(Br)cn4)o2)CC3)C1 [Compound 140] | 
93.2 | 42.9 | 69.6 | 89.6 |  | CC(C)c1nc(Cn2cc(C(=O)N3CCc4nc(NC(=O)[C@@H]5CCN(C#N)C5)sc4C3)ccc2=O)cs1 [Compound 149] | 
92.4 | 45.4 | 67.6 | 89.3 |  | N#CN1CC[C@@H](C(=O)Nc2nc3c(s2)CN(C(=O)c2csc(C4CC4)n2)CC3)C1 [Compound 152] | 
92.6 | 50.5 | 79.8 | 94.7 |  | N#CN1CC[C@@H](C(=O)Nc2nc3c(s2)CN(C(=O)c2cnn(-c4cccc(Br)c4)c2)CC3)C1 [Compound 156] | 
95.1 | 56.4 | 82.2 | 95.6 |  | Cc1ccc(-c2cc(C(=O)N3CCc4nc(NC(=O)[C@@H]5CCN(C#N)C5)sc4C3)n[nH]2)s1 [Compound 165] | 
 |  |  |  | 67.9 | CC(=O)Oc1ccccc1C(=O)N1CCc2nc(NC(=O)[C@@H]3CCN(C#N)C3)sc2C1 [compound 458] | 
 |  |  |  | 76 | Cc1ncc(C(=O)N2CCc3nc(NC(=O)[C@@H]4CCN(C#N)C4)sc3C2)s1 [compound 469] | 
 |  |  |  | 78.4 | N#CN1CC[C@@H](C(=O)Nc2nc3c(s2)CN(C(=O)c2ccc4c(c2)OCO4)CC3)C1 [compound 470] | 
 |  |  |  | 70.8 | CN1CCN(c2ccc(C(=O)N3CCc4nc(NC(=O)[C@@H]5CCN(C#N)C5)sc4C3)cc2)CC1 [compound 472] | 
